Assay results as given in patent publication US8426408B2, “Pyrimidine inhibitors of kinases” (AbbVie Inc., priority 2009, dated 2013).

Key:
Aurora B = target: T1, Aurora B (Homo sapiens, UniProt Q96GD4); assay: Aurora B enzyme inhibition (time-resolved fluorescence, histone H3 peptide); assay type: biochemical; details: 1 mM ATP
T1 construct: Active Aurora B enzyme (recombinant residues 1-344)
How it was run: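 IC50s came from an exponential fit of inhibition against inhibitor concentration, with phosphorylation read as the 665/615 nm time-resolved fluorescence ratio after EDTA stop using Eu-anti-phospho-H3 and SA-APC. The 1 h reaction used Aurora B 1-344 plus GST-INCENP, biotin-histone H3 1-21 peptide and 1 mM ATP in pH 7.4 HEPES buffer.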

KDR = KDR (Homo sapiens, UniProt P35968); assay: KDR HTRF in vitro kinase assay; assay type: biochemical; parameters: purified enzyme (His6-KDR 789-1354, MW 63 kD); His6 (N); details: 1 mM ATP; read-out: KDR enzyme inhibition data (Ki)
Sequence of KDR (P35968 789-1354): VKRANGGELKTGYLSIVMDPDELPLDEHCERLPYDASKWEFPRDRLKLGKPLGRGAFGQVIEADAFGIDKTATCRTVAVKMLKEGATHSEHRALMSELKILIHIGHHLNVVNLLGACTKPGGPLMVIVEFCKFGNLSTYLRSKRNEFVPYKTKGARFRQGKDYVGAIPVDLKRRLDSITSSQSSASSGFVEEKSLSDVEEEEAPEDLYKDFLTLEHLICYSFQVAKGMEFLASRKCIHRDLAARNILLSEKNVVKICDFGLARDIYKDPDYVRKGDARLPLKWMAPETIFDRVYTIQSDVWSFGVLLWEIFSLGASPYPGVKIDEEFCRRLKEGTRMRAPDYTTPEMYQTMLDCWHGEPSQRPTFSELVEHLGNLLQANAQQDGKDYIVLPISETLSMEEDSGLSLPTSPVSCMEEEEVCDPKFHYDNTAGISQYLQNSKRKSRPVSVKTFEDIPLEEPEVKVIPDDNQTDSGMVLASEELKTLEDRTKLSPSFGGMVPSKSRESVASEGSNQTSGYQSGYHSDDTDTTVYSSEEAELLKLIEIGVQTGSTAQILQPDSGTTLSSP
How it was run: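 His6-KDR 789-1354 (7 ng/well) with 0.5 μM biotinylated peptide substrate and 1 mM ATP in HEPES pH 7.1, MgCl2/MnCl2, 60 min at room temperature. EDTA-quenched, detected by streptavidin-XL-665 plus Eu-kryptate anti-phosphotyrosine HTRF after 3 h; IC50 from 620/665 nm ratio.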

T1 sequence (Q96GD4 whole entry, the tested form may be a part): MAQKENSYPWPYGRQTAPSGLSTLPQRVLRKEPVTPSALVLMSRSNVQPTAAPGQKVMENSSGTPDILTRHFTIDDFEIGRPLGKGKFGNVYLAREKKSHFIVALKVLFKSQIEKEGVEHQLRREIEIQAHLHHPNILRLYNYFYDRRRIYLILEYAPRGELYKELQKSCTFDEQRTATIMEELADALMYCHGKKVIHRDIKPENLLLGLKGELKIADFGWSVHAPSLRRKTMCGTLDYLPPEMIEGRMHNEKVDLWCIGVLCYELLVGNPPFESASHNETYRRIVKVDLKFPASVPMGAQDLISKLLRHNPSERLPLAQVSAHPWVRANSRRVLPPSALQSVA
T1 sequence (Q9NQS7 826-918 partner limits assumed): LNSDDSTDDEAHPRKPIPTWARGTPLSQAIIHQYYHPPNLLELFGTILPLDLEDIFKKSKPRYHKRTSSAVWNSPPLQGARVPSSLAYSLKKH

Row | Ki (Aurora B) | Ki (KDR) | Structure (SMILES)
1 | < 100 nM | < 100 nM | Cn1cc(Nc2ncc(C(F)(F)F)c(N[C@@H]3[C@H](C(N)=O)[C@H]4C=C[C@@H]3C4)n2)cn1.Cn1cc(Nc2ncc(C(F)(F)F)c(N[C@H]3[C@@H](C(N)=O)[C@@H]4C=C[C@H]3C4)n2)cn1 (mixture of isomers) [Example 10, (1S,2S,3R,4R)-3-{[2-[(1-methyl-1H-pyrazol-4-yl)amino]-5-(trifluoromethyl)pyrimidin-4-yl]amino}bicyclo[2.2.1]hept-5-ene-2-carboxamide and (1R,2R,3S,4S)-3-{[2-[(1-methyl-1H-pyrazol-4-yl)amino]-5-(trifluoromethyl)pyrimidin-4-yl]amino}bicyclo[2.2.1]hept-5-ene-2-carboxamide]
2 | < 100 nM | < 100 nM | CC(O)Cn1cc(Nc2ncc(C(F)(F)F)c(NC3C4C=CC(C4)C3C(N)=O)n2)cn1 (mixture of isomers) [Example 19, (1R,2R,3S,4S)-3-{[2-({1-[(2R)-2-hydroxypropyl]-1H-pyrazol-4-yl}amino)-5-(trifluoromethyl)pyrimidin-4-yl]amino}bicyclo[2.2.1]hept-5-ene-2-carboxamide and (1S,2S,3R,4R)-3-{[2-({1-[(2R)-2-hydroxypropyl]-1H-pyrazol-4-yl}amino)-5-(trifluoromethyl)pyrimidin-4-yl]amino}bicyclo[2.2.1]hept-5-ene-2-carboxamide]
3 | < 100 nM | < 100 nM | Cn1cc(Nc2ncc(C(F)(F)F)c(N[C@@H]3[C@@H]4CC[C@@H](C4)[C@@H]3C(N)=O)n2)cn1.Cn1cc(Nc2ncc(C(F)(F)F)c(N[C@H]3[C@H]4CC[C@H](C4)[C@H]3C(N)=O)n2)cn1 (mixture of isomers) [Example 20, (1S,2S,3R,4R)-3-{[2-[(1-methyl-1H-pyrazol-4-yl)amino]-5-(trifluoromethyl)pyrimidin-4-yl]amino}bicyclo[2.2.1]heptane-2-carboxamide and (1R,2R,3S,4S)-3-{[2-[(1-methyl-1H-pyrazol-4-yl)amino]-5-(trifluoromethyl)pyrimidin-4-yl]amino}bicyclo[2.2.1]heptane-2-carboxamide]
4 | 100 to 1000 nM | 100 to 1000 nM | CC(O)Cn1cc(Nc2ncc(C(F)(F)F)c(NC3C4CCC(C4)C3C(N)=O)n2)cn1 (mixture of isomers) [Example 21, (1S,2R,3S,4R)-3-{[2-({1-[(2R)-2-hydroxypropyl]-1H-pyrazol-4-yl}amino)-5-(trifluoromethyl)pyrimidin-4-yl]amino}bicyclo[2.2.1]heptane-2-carboxamide and (1R,2S,3R,4S)-3-{[2-({1-[(2R)-2-hydroxypropyl]-1H-pyrazol-4-yl}amino)-5-(trifluoromethyl)pyrimidin-4-yl]amino}bicyclo[2.2.1]heptane-2-carboxamide]
5 | < 100 nM | < 100 nM | CCn1cc(Nc2ncc(C(F)(F)F)c(N[C@@H]3[C@H](C(N)=O)[C@H]4C=C[C@@H]3C4)n2)cn1.CCn1cc(Nc2ncc(C(F)(F)F)c(N[C@H]3[C@@H](C(N)=O)[C@@H]4C=C[C@H]3C4)n2)cn1 (mixture of isomers) [Example 22, (1S,2S,3R,4R)-3-{[2-[(1-ethyl-1H-pyrazol-4-yl)amino]-5-(trifluoromethyl)pyrimidin-4-yl]amino}bicyclo[2.2.1]hept-5-ene-2-carboxamide and (1R,2R,3S,4S)-3-{[2-[(1-ethyl-1H-pyrazol-4-yl)amino]-5-(trifluoromethyl)pyrimidin-4-yl]amino}bicyclo[2.2.1]hept-5-ene-2-carboxamide]
6 | < 100 nM | < 100 nM | CCn1cc(Nc2ncc(C(F)(F)F)c(N[C@@H]3[C@H]4CC[C@H](C4)[C@@H]3C(N)=O)n2)cn1.CCn1cc(Nc2ncc(C(F)(F)F)c(N[C@H]3[C@@H]4CC[C@@H](C4)[C@H]3C(N)=O)n2)cn1 (mixture of isomers) [Example 24, (1R,2S,3R,4S)-3-{[2-[(1-ethyl-1H-pyrazol-4-yl)amino]-5-(trifluoromethyl)pyrimidin-4-yl]amino}bicyclo[2.2.1]heptane-2-carboxamide and (1S,2R,3S,4R)-3-{[2-[(1-ethyl-1H-pyrazol-4-yl)amino]-5-(trifluoromethyl)pyrimidin-4-yl]amino}bicyclo[2.2.1]heptane-2-carboxamide]
7 | < 100 nM | < 100 nM | CCn1cc(Nc2ncc(Br)c(N[C@@H]3[C@H](C(N)=O)[C@H]4C=C[C@@H]3C4)n2)cn1.CCn1cc(Nc2ncc(Br)c(N[C@H]3[C@@H](C(N)=O)[C@@H]4C=C[C@H]3C4)n2)cn1 (mixture of isomers) [Example 31, (1S,2S,3R,4R)-3-({5-bromo-2-[(1-ethyl-1H-pyrazol-4-yl)amino]pyrimidin-4-yl}amino)bicyclo[2.2.1]hept-5-ene-2-carboxamide and (1R,2R,3S,4S)-3-({5-bromo-2-[(1-ethyl-1H-pyrazol-4-yl)amino]pyrimidin-4-yl}amino)bicyclo[2.2.1]hept-5-ene-2-carboxamide]
8 | < 100 nM | < 100 nM | Cn1cc(Nc2ncc(Cl)c(N[C@@H]3[C@@H]4CC[C@@H](C4)[C@@H]3C(N)=O)n2)cn1.Cn1cc(Nc2ncc(Cl)c(N[C@H]3[C@H]4CC[C@H](C4)[C@H]3C(N)=O)n2)cn1 (mixture of isomers) [Example 113, (1R,2R,3S,4S)-3-({5-chloro-2-[(1-methyl-1H-pyrazol-4-yl)amino]pyrimidin-4-yl}amino)bicyclo[2.2.1]heptane-2-carboxamide and (1S,2S,3R,4R)-3-({5-chloro-2-[(1-methyl-1H-pyrazol-4-yl)amino]pyrimidin-4-yl}amino)bicyclo[2.2.1]heptane-2-carboxamide]
9 | < 100 nM | < 100 nM | CCn1cc(Nc2ncc(Cl)c(N[C@@H]3[C@@H]4CC[C@@H](C4)[C@@H]3C(N)=O)n2)cn1.CCn1cc(Nc2ncc(Cl)c(N[C@H]3[C@H]4CC[C@H](C4)[C@H]3C(N)=O)n2)cn1 (mixture of isomers) [Example 114, (1R,2R,3S,4S)-3-({5-chloro-2-[(1-ethyl-1H-pyrazol-4-yl)amino]pyrimidin-4-yl}amino)bicyclo[2.2.1]heptane-2-carboxamide and (1S,2S,3R,4R)-3-({5-chloro-2-[(1-ethyl-1H-pyrazol-4-yl)amino]pyrimidin-4-yl}amino)bicyclo[2.2.1]heptane-2-carboxamide]
10 | < 100 nM | < 100 nM | CCn1cc(Nc2ncc(Cl)c(N[C@@H]3[C@H](C(N)=O)[C@@H]4C=C[C@H]3C4)n2)cn1.CCn1cc(Nc2ncc(Cl)c(N[C@H]3[C@@H](C(N)=O)[C@H]4C=C[C@@H]3C4)n2)cn1 (mixture of isomers) [Example 121, (1S,2R,3S,4R)-3-({5-chloro-2-[(1-ethyl-1H-pyrazol-4-yl)amino]pyrimidin-4-yl}amino)bicyclo[2.2.1]hept-5-ene-2-carboxamide and (1R,2S,3R,4S)-3-({5-chloro-2-[(1-ethyl-1H-pyrazol-4-yl)amino]pyrimidin-4-yl}amino)bicyclo[2.2.1]hept-5-ene-2-carboxamide]
11 | < 100 nM | 100 to 1000 nM | NC(=O)[C@@H]1CCC[C@@H]1Nc1nc(Nc2cnn(C3CCNCC3)c2)ncc1Cl.NC(=O)[C@H]1CCC[C@H]1Nc1nc(Nc2cnn(C3CCNCC3)c2)ncc1Cl (mixture of isomers) [Example 136, (1S,2R)-2-[(5-chloro-2-{[1-(piperidin-4-yl)-1H-pyrazol-4-yl]amino}pyrimidin-4-yl)amino]cyclopentanecarboxamide and (1R,2S)-2-[(5-chloro-2-{[1-(piperidin-4-yl)-1H-pyrazol-4-yl]amino}pyrimidin-4-yl)amino]cyclopentanecarboxamide]
12 | < 100 nM | < 100 nM | Cn1cc(Nc2ncc(Cl)c(N[C@@H]3[C@H](C(N)=O)[C@H]4CC[C@@H]3O4)n2)cn1.Cn1cc(Nc2ncc(Cl)c(N[C@H]3[C@@H](C(N)=O)[C@@H]4CC[C@H]3O4)n2)cn1 (mixture of isomers) [Example 141, (1S,2R,3S,4R)-3-({5-chloro-2-[(1-methyl-1H-pyrazol-4-yl)amino]pyrimidin-4-yl}amino)-7-oxabicyclo[2.2.1]heptane-2-carboxamide and (1R,2S,3R,4S)-3-({5-chloro-2-[(1-methyl-1H-pyrazol-4-yl)amino]pyrimidin-4-yl}amino)-7-oxabicyclo[2.2.1]heptane-2-carboxamide]
13 | < 100 nM | < 100 nM | Cn1cc(Nc2ncc(Cl)c(N[C@@H]3CC[C@@H]3C(N)=O)n2)cn1.Cn1cc(Nc2ncc(Cl)c(N[C@H]3CC[C@H]3C(N)=O)n2)cn1 (mixture of isomers) [Example 151, (1S,2R)-2-({5-chloro-2-[(1-methyl-1H-pyrazol-4-yl)amino]pyrimidin-4-yl}amino)cyclobutanecarboxamide and (1R,2S)-2-({5-chloro-2-[(1-methyl-1H-pyrazol-4-yl)amino]pyrimidin-4-yl}amino)cyclobutanecarboxamide]
14 | < 100 nM | < 100 nM | CCn1cc(Nc2ncc(Cl)c(N[C@H]3[C@@H](C(N)=O)[C@@H]4C=C[C@H]3C4)n2)cn1 (racemic) [Example 30, (1S,2S,3R,4R)-3-({5-chloro-2-[(1-ethyl-1H-pyrazol-4-yl)amino]pyrimidin-4-yl}amino)bicyclo[2.2.1]hept-5-ene-2-carboxamide and (1R,2R,3S,4S)-3-({5-chloro-2-[(1-ethyl-1H-pyrazol-4-yl)amino]pyrimidin-4-yl}amino)bicyclo[2.2.1]hept-5-ene-2-carboxamide]
